“Also recorded” adds a separate entry of the source.

Experiment [1] relates to mouse satellite cells (MuMa23/P13). Nature of the experiment: AlamarBlue proliferation assay, primary satellite cells. The format is cell-based. The settings on record: 24 hrs, SERF2 20 and 4 μg/ml. Here is the method:
FIG. 4: Effect of SERF2 on Proliferation of mouse satellite cells (MuMa23/P13). Proliferation assay was performed essentially as in FIG. 2. Incubation time was 24 hrs, added SERF2 concentrations were 20 and 4 μg/ml, respectively.
Muscle tissue was taken from male ICR mice and minced by using scissors and a scalpel. Following incubation in protease solution (Sigma, St. Lois) for 1 h at 37° C., remaining tissue clumps were dissociated by vigorousely pipetting and loaded onto a Percoll (Pharmacia) gradient (75%, 50%, 30%). After centrifugation for 20 min at 1250×g, cells were collected from the 2nd interphase (99% satellite cells), washed and cultured at a cell density of 1×10^5 cells/ml in 6-well plates. See also Danoviz ewt al. Methods Mol Biol. 2012; 798: 21-52.
Proliferation was measured using the AlamarBlue™ assay according to the manufacturer's protocol. Briefly, 1×10^4 cells were seeded per well containing 100 μl growth medium. Cells were incubated over night at +37° C., 5% v/v CO^2 and humidified atmosphere. Prior performing the assay, viability of cells was checked under the microscope. Usually cells reached 60% confluence. Cells were washed three times with 100 μl DPBS per well. […] Fluorescence (Ex. 570 nm, Em. 585 nm) was measured using a Varioskan Flash multi-plate reader (Thermo Scientific). Data were evaluated using Microsoft Excel and GraphPad Prism V4.
On the technique in general: Alamar Blue is a resazurin reagent that responds to reducing activity.

For experiment [2], the system named is human epithelial cell line (A431). Nature of the experiment: H2O2-induced apoptosis, trypan-blue staining, A431. The class given is cell-based. The settings on record: 200 mM H2O2, SERF2 5 μg/ml, 6 hours, serum-free. Here is the method: (§1) Experiments were performed in 6-well plates containing 5 ml cell culture medium (serum-free) per well and were seeded at a cell density of 1*10^6 cells/well and cultured overnight. On the next day 200 mM H2O2 or 200 mM H2O2 and SERF2 (5 μg/ml) was added to cultures. After 6 hours of incubation, the adherent cells were harvested, washed 3 times in PBS and dead cells were detected by trypan-blue staining using light microscopy. Shown is the percentage of dead cells.
(§2) Trypan Blue staining is one of the most commonly used methods to determine the cell viability using light microscopy. Trypan blue can only stain cells if their membrane is damaged.
(§3) The question was asked whether SERF2 has an effect on growth factor deprivation- or stress-induced apoptosis. The experimental protocol included addition of Hydrogen peroxide (H2O2), which is known to cause cellular stress and consequently apoptotic death in doses below 200 μM (Cox A., Carcinogenesis. 2007, Vol. 28, 10). Furthermore apoptosis was induced by deprivation of granulocyte macrophage colony-stimulating factor (GM-CSF) in cultures of TF-1 cells. These cells are dependent on the presence of a growth factor which is absolutely necessary for growth and differentiation of TF-1 cells.

Experiment [3] deals with human epithelial cell line (MCF-7). Briefly: H2O2-induced apoptosis, trypan-blue staining, MCF-7. The settings on record: 200 mM H2O2, SERF2 5 μg/ml, 6 hours, serum-free. The format is cell-based. Here is the method: as §1, §2, §3
For experiment [4], the system named is human T-cell line (Jurkat). Nature of the experiment: H2O2-induced apoptosis, trypan-blue staining, Jurkat. The format is cell-based. The settings on record: 200 mM H2O2, SERF2 5 μg/ml, 6 hours, serum-free. Here is the method: Experiments were performed in 6-well plates containing 5 ml cell culture medium (serum-free) per well and were seeded at a cell density of 1*10^6 cells/well and cultured overnight. On the next day 200 mM H2O2 (red bar) or 200 mM H2O2 and SERF2 (green bar; 5 μg/ml) was added to cultures. After 6 hours of incubation, the adherent cells were harvested, washed 3 times in PBS and dead cells were detected by trypan-blue staining using light microscopy. Shown is the percentage of dead cells.
as §2, §3

A further experiment deals with 711-3 cells. Briefly: H2O2-induced apoptosis, caspase-3 ELISA, 711-3. The class given is cell-based, human. Conditions: serum-free medium with or without H2O2, SERF2 5 μg/ml, 9.5 hours. Here is the method: 711-3 cells were incubated under different culture conditions: serum-free medium (dark blue), serum-free medium+SERF2 (5 μg/ml; lime) serum-free medium+SERF2+H2O2 (green) and serum-free medium+H2O2 (red). After 9.5 hours culture supernatants were analyzed by an ELISA-technique for caspase-3 expression levels. Results are expressed as pNA in pmol/μl.
Caspase-3 is a member of the cysteine aspartic acid-specific protease family and is a marker of an early event in apoptosis. Caspase-3 expression was measured using a commercially available kit. Briefly, culture supernatants of cells undergoing apoptosis after different treatments were harvested and incubated with a substrate labeled with p-nitroaniline (pNA), which produces a yellow color when it is cleaved by caspase-3. The amount of produced yellow color is proportional to the caspase-3 activity, which can be determined by an ELISA reader at 405 nm (Promega). The assay was performed essentially as described by the manufacturer (instruction manual of CaspACE™ Assay System, Promega).
The question was asked whether SERF2 has an effect on growth factor deprivation- or stress-induced apoptosis. The experimental protocol included addition of Hydrogen peroxide (H2O2), which is known to cause cellular stress and consequently apoptotic death in doses below 200 μM (Cox A., Carcinogenesis. 2007, Vol. 28, 10). […]

Another experiment deals with zebrafish. Briefly: Zebrafish blood cell concentration. The format is in vivo. Here is the method: FIG. 14: Changes in blood cell concentrations in zebrafish incubated in different doses of SERF2. Shown are mean values (blood cells/nl) and SEM. Asterisks indicate significant differences to control animals.
FIG. 17: Detection of blood cells (green arrows) in 7 dpf zebrafish (top image=control, lower image=SERF2-treated). To determine blood cell concentration the number of detected cells were divided by vessel volume.
SERF2 was administered by a) injection of the native protein into the yolk sac of 3 day post fertilization (dpf) animals and freshly fertilized eggs (2-8 cell stage) in various protein concentrations or chronic incubation with the native protein to supply it via diffusion. For in deep analysis of angiogenic effects flk-1 transgenic animals with gfp (green fluorescent protein) labelled endothelium were used. For all other experiments wildtype (wdt) animals were used.
A cast of the vascular bed was obtained by accumulation of the shifting vectors of moving erythrocytes from a number of subsequent difference pictures, as described previously (by Schwerte et al., supra). In parallel to this flk-1 transgenic animals, which show green fluorescing endothelium, were imaged.

On to “SERF2: Small EDRK-rich factor 2, mature protein of 59 amino acids (SEQ ID NO: 1) (MTRGNQRELARQKNMKKQSDSVKGKRRDDGLSAAARKQRDSEIMQQKQKKANEKKEEPK; homo sapiens)”, for which the “proliferative effect on mouse satellite cells” value in experiment [1] is “proliferative effect in a dose-dependent manner”. Further, the “protection from H2O2-induced apoptosis (percentage of dead cells), A431” value in experiment [2] is on record as “markedly reduced apoptosis; also recorded: protects a human epithelial cell line (A431) from H2O2-induced apoptosis”. For the same substance, the “protection from H2O2-induced apoptosis (percentage of dead cells), MCF-7” value in experiment [3] is “markedly reduced apoptosis; also recorded: protects a human epithelial cell line (MCF-7) from H2O2-induced apoptosis”. The “protection from H2O2-induced apoptosis (percentage of dead cells), Jurkat” value in experiment [4] is recorded as “markedly reduced apoptosis; also recorded: protects a human T-cell line (Jurkat) from H2O2-induced apoptosis”. Besides, the “apoptosis (caspase-3 levels) in 711-3 cells” value in the experiment with 711-3 cells is on record as “markedly reduced apoptosis; also recorded: alleviates apoptosis”. Besides, in the experiment with zebrafish (7 dpf, incubation and injection routes), the “blood cell concentrations by treatment group” value is “all but one treatment group show significantly increased blood cell concentrations”. In addition, in the experiment on zebrafish (zebrafish, different doses of SERF2), the “increase in blood cell concentration compared to controls” value is on record as 50 to 100%.

These data come from patent US9637529B2, “Medicament for atrophy treatment or increasing cell growth” (SIMU TRADE CONSULTING GMBH & CO. LEASING KG, priority 2012, dated 2017).
